The values below come from patent US20040197268A1, “Method of imaging amyloid deposits using substituted rhodanine derivatives” (priority 1999, published 2004).

By pIC50 is commonly meant the negative decadic logarithm of the IC50, by convention in mol/L. As usually defined, the melting point is the temperature of the solid-liquid transition.

Data set [1] deals with T1, beta amyloid peptide Aβ(1-40) (Homo sapiens, UniProt P05067).
T1 construct: 0.5 mg/mL AP (140) peptide in 20% HFIP+0.1 μL/assay radioiodinated ^125I Aβ(1-40)
The data set can be described thus: BAPA (Beta-Amyloid Peptide Aggregation), pH 6.0. Format: biochemical. The note with it: Aβ(1-40) 33 μM, pH 6.0, 2 to 4 hours at room temperature, filtration. Here is the method: BAPA (Beta-Amyloid Peptide Aggregation)
This assay is used to provide a measure of inhibition by a compound against the aggregation behavior of the beta amyloid peptide.
The purpose of this assay is to provide a higher volume method of assaying the amount of beta amyloid aggregation using an endpoint assay based on filtration. In this assay, hexafluoroisopropanol (HFIP) is used to break down the initial amyloid peptide to a monomer state and use a concentration of 33 μM which is high enough so that aggregation will occur at pH 6.0 in several hours.
β-Amyloid Peptide Aggregation, pH 6.0 (BAPA)
In a 96-well plate (Costar 3794), we add […] 50 mM Phosphate Buffer, pH 6.0, 10 μL 0.5 mg/mL AP (140) peptide in 20% HFIP+0.1 μL/assay radioiodinated ^125I Aβ(1-40) [^125I Aβ(1-40)], and 1 μL of the compound to be tested starting at 50 mM with a concentration of DMSO <1%. Then, we incubate for 2 to 4 hours at room temperature. We stop the reaction with […] of 50 mM phosphate buffer, pH 6.0, and filter it through a 0.2 μm 96-well filter plate (Millipore MAGU N22). We wash the filter plate with 100 μL of the same phosphate buffer. Aggregation was detected on a Microbeta counter after impregnating the filters with Meltilex (1450-441) and is corrected for background.

A further data set addresses T2, Aβ(1-42) (Homo sapiens, UniProt P05067).
T2 construct: Required Aβ(1-42)(California Peptide) was dried from its hexafluoroisopropanol (HFIP) stock solution; purchased California Peptide
The data set can be described thus: BATYM Assay (Aβ(1-42) aggregation, Thioflavin T fluorescence). Format: biochemical. The following applies: Aβ 1-42 final concentration 100 μM, PBS pH 7.4, 37° C., 1 day, ThT fluorescence. As to the method:
Required Aβ(1-42)(California Peptide) was dried from its hexafluoroisopropanol (HFIP) stock solution. The Aβ(1-42) was dissolved in dimethylsulfoxide (DMSO) and then mixed with phosphate buffered saline, (PBS) (pH 7.4). The mixed Aβ(1-42) solution was filtered with a 0.2 μm Omnipore membrane syringe filter (Millipore, Bedford, Mass.). The compound to be tested in DMSO (50 times concentrate) was put into each well (0.5 μL/well) of a 96-well plate. The Aβ(1-42) solution was added into each well (24.5 μL/well). The plate was centrifuged at 1,000 g for 5 minutes and incubated at 37° C. for 1 day (Aβ 1-42; final concentration 100 μM).
After incubation Thioflavin T (ThT) (30 μM) solution in glycine-NaOH buffer (pH 8.5, 50 mM) was added into each well (250 μL/well), fluorescence was measured (ex. 440/20 nm; em 485/20 nm) using a fluorescence plate reader. The inhibitory activity was calculated as the reduction of fluorescence with the following formula:
inhibition (%)={(F(Aβ)−F(Aβ+compound)}/{F(Aβ)−F(solvent+compound)}×100
The IC50s were calculated by a curve fitting program using the following equation. The data were obtained from two different experiments in triplicate.
x=concentration of tested compound (M),

In data set [2] the target is T3, Aβ(1-40) (Homo sapiens, UniProt P05067).
T3 construct: Soluble Aβ(1-40) peptide (Bachem, Torrance, Calif.); purchased Bachem, Torrance, Calif
The data set can be described thus: BASST (Beta-Amyloid Self-Seeding, ThioflavinT), inhibitors of self-seeded amyloid fibril growth. The note with it: 30 μM soluble Aβ(1-40), pH 7.5, 37° C., 3 to 5 hours, thioflavin T fluorescence. Format: biochemical. Here is the method: BASST (Beta-Amyloid Self-Seeding, ThioflavinT)
(§1) An assay for inhibitors of self-seeded amyloid fibril growth
Assay Buffer—50 mM sodium phosphate, pH 7.5, 100 mM NaCl, 0.02% NaN3, 1 M urea (filter and store at 4° C.).
Soluble Aβ(1-40)—2.2 mg/mL in deionized H2O (store in aliquots at −20° C., keep on ice when thawed) will self-seed after 1 week storage. Typically, the solution should be stored until no lag phase is seen in the assay.
Final assay conditions: 30 μM soluble Aβ(1-40) in deionized water in assay buffer. Compound to be tested is dissolved in DMSO, typically 5-50 mM stock, such that the final concentration of DMSO is <1% v/v in the assay.
Assay: Reaction mixture for 50 assays (on ice) comprised of 1 μL of soluble Aβ(1-40)+13.5 μL assay buffer per assay. The following are the amounts of the components of the reaction mixture that result in each of the 50 assay wells.
1) Prepare the reaction mix above by mixing the components and storing on ice.
2) Pipet […] of reaction mixture into each of 50 wells of a polystyrene U-bottom 96-well microtiter plate (Corning 25881-96) on ice.
3) Add […] of diluted compound to be tested to each well in a column of eight, including solvent control. Serial 3-fold dilutions from 1 mM (100 μM final) in assay buffer−urea=7 dilutions+zero. Each 96-well plate can therefore accommodate 11 samples+1 Congo Red control (0.039-5 μM final in 2-fold steps).
4) Seal the plate with aluminum film and incubate for 10 minutes on ice.
5) Raise the temperature to 37° C. and incubate for 3 to 5 hours (depends on the lot of the peptide).
6) Remove the aluminum film and add 250 μL/well of 5 μM thioflavin T (ThT) [T-3516, Sigma-Aldrich] in 50 mM glycine-NaOH, pH 8.5. Read fluorescence on a plate reader (ex=440 nm/20 nm; em=485 nm/20 nm) within 5 minutes.

In data set [3] the target is T3, Aβ(1-40). The data set can be described thus: BASSR (Beta-Amyloid Self-Seeding Radioassay), inhibitors of self-seeded amyloid fibril growth. Format: biochemical. The note with it: 30 μM soluble Aβ(1-40) + 125I-labeled Aβ(1-40), pH 7.5, 37° C., 3 to 5 hours, filtration. As to the method:
BASSR (Beta-Amyloid Self-Seeding Radioassay)
as §1
Assay Buffer—50 mM sodium phosphate, pH 7.5, 100 mM NaCl, 0.02% NaN3, 1 M urea (filter and store at 4° C.)
Soluble Aβ(1-40) peptide (Bachem, Torrance, Calif.)—2.2 mg/mL in deionized H2O (stored in aliquots at −20° C., keep on ice when thawed) will self-seed after 1 week storage. Typically, the solution should be stored until no lag phase is seen in the assay.
^125I-labeled Aβ(1-40)—150K-350K cpm/μL in 100% acetonitrile—0.1% trifluoroacetic acid (TFA)—1% β-mercaptoethanol (aliquots stored at −20° C.). ^125I-labeled Aβ(1-40) can be made in accordance with the procedure set forth by H. Levine, III in Neurobiol. Aging, 16:755 (1995), which is hereby incorporated by reference, or this reagent may be purchased from Amersham, Arlington Heights, Ill.
Final assay conditions: 30 μM soluble Aβ(1-40) in deionized water in assay buffer+20-50K cpm ^125I-labeled Aβ(1-40) per assay. Compound to be tested is dissolved in dimethylsulfoxide (DMSO), typically 5-50 mM stock, such that the final concentration of DMSO is <1% v/v in the assay.
Assay: Reaction mixture for 50 assays (on ice) is comprised of 0.1-0.2 μL of […] ^125I-labeled Aβ(1-40)+1 μL of soluble Aβ(1-40)+13.5 μL assay buffer per assay. The following are the amounts of the components of the reaction mixture sufficient for 50 assay wells.
1) Prepare reaction mixture above by mixing components and storing on ice.
2) Pipet 14.5 μL of reaction mixture into each of 50 wells on a polypropylene U-bottom 96-well microtiter plate on ice (Costar 3794).
3) Add 1.7 μL of diluted compound to be tested to each well in a column of eight, including solvent control. Serial 3-fold dilutions from 1 mM (100 μM final) in assay buffer−urea=7 dilutions+zero. Each 96-well plate can therefore accommodate 11 samples+1 Congo Red control (0.039-5 μM final in 2-fold steps).
4) Seal the plate with aluminum film (Beckman 538619) and incubate for 10 minutes on ice.
5) Raise the temperature to 37° C. and incubate for 3 to 5 hours (depending on the lot of the peptide).
6) Remove the aluminum film and add 200 μL/well of ice cold assay buffer with urea, collecting the radiolabeled fibrils by vacuum filtration through 0.2 μm pore size GVWP filters in 96-well plates (Millipore MAGV N22, Bedford, Mass.). Determine the radioactivity of the filters using standard methods well-known to those skilled in the art.

Each structure is given as a SMILES string. pIC50: −log10 of the molar value. Where “and” joins values, the source holds several entries; their conditions need not be identical. Equal entries are not always repeated.

T2 sequence (P05067 672-713 limits assumed): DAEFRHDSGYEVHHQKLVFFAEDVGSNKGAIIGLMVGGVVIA
T1 sequence (P05067 672-711 limits assumed): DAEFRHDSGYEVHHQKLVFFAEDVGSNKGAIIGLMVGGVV
T3 sequence (P05067 672-711 limits assumed): as above

Molecule `CCCCCCN(C)c1ccc(/C=C2\SC(=S)N(CC(=O)NS(=O)(=O)c3ccccc3)C2=O)cc1` [Example 9, (Z) N-({5-[4-(Hexyl-methyl-amino)benzylidene]-4-oxo-2-thioxo-thiazolidin-3-yl}-acetyl)benzenesulfonamide] had a melting point of 173 to 177 °C. In data set [1], the pIC50 is 5.40. On Aβ(1-42), the pIC50 is 5.67. The molecule further had a pIC50 at Aβ(1-40) [2] of 5.76. Further, at Aβ(1-40) [3], the pIC50 is under 4.00.
The like results for `CCCCCCN(C)c1ccc(/C=C2\SC(=S)N(Cc3nnn[nH]3)C2=O)cc1` [Example 16, (Z) 5-[4-(Hexyl-methyl-amino)benzylidene]-3-(1H-tetrazol-5-ylmethyl)-2-thioxo-thiazolidin-4-one] were, in that order, 198 to 200 °C, 4.42, 5.71, 5.52 and 5.15.
The like results for `CCCCCCN(C)c1ccc(/C=C2\SC(=S)N(CCNS(=O)(=O)C(F)(F)F)C2=O)cc1` [Example 12, (Z) C,C,C-Trifluoro-N-(2-{5-[4-(hexyl-methyl-amino)benzyldene]-4-oxo-2-thioxo-thiazolidin-3-yl}-ethyl)methanesulfonamide] were, in that order, 170 to 173 °C, 4.59, 5.79, 6.00 and under 4.00.
`CCCCCN(CCCCC)c1ccc(/C=C2\SC(=S)N(CC(=O)NS(=O)(=O)c3ccccc3)C2=O)cc1` [Example 22, (Z) N-{2-[5-(4-Dipentylamino-benzylidene)-4-oxo-2-thioxo-thiazolidin-3-yl]-acetyl}-benzenesulfonamide] displayed a melting point of 121 to 123 °C. Moreover, the pIC50 in data set [1] is under 4.22. This molecule had a pIC50 against Aβ(1-42) of 5.70. This molecule also had a pIC50 against Aβ(1-40) [2] of 6.00. For the same molecule, the pIC50 on Aβ(1-40) [3] was 5.52.
Molecule `O=C1/C(=C/c2ccc(N3CC[C@@H]4CCCC[C@H]4C3)cc2)SC(=S)N1Cc1nnn[nH]1` [Example 23, (Z) 5-[(4aS,8aR)-4-(Octahydro-isoquinolin-2-yl)-benzylidene]-3-(1H-tetrazol-5-ylmethyl)-2-thioxo-thiazolidin-4-one] registered a melting point of 247 °C. The pIC50 in data set [1] is 4.52. On Aβ(1-42), this molecule had a pIC50 of 5.48. The pIC50 against Aβ(1-40) [2] is 6.00 and 6.30. Also, at Aβ(1-40) [3], the negative logarithm of the IC50 (pIC50) is under 4.00.
For the molecule `CCCC1CCN(c2ccc(/C=C3\SC(=S)N(CC(=O)NS(=O)(=O)c4ccc(F)cc4)C3=O)cc2)CC1` [Example 39, (Z) 4-Fluoro-N-(2-{4-oxo-5-[4-(4-propyl-piperidin-1-yl)-benzylidene]-2-thioxo-thiazolidin-3-yl}-acetyl)-benzenesulfonamide], the melting point amounted to 197 °C. In addition, the pIC50 in data set [1] is 4.43. The pIC50 on Aβ(1-42) is 5.54. Moreover, the pIC50 at Aβ(1-40) [2] is 6.00 and 7.00. Also, the pIC50 at Aβ(1-40) [3] was < 4.00 and 4.68.
The molecule `CCCCCCN(C)c1ccc(/C=C2\SC(=S)N(CC(=O)NC)C2=O)cc1` [Example 4, (Z) 2-{5-[4(Hexyl-methyl-amino)-benzylidene]-4-oxo-2-thioxo-thiazolidin-3-yl}-N-methyl-acetamide] yielded a melting point of 228 to 230 °C. Also, the pIC50 in data set [1] is 5.22. The pIC50 at Aβ(1-42) is 5.08. Besides, the pIC50 against Aβ(1-40) [2] was 5.52. Also, the pIC50 on Aβ(1-40) [3] is under 4.00.
For the molecule `O=C(CN1C(=O)/C(=C/c2ccc(N3CC[C@@H]4CCCC[C@H]4C3)cc2)SC1=S)NS(=O)(=O)c1ccc(F)cc1` [Example 38, (Z) 4-Fluoro-N-(2-{5-[(4aS,8aR)-4-(octahydro-isoquinolin-2-yl)-benzylidene]-4-oxo-2-thioxo-thiazolidin-3-yl}-acetyl)-benzenesulfonamide], the melting point fell in the range of 220 to 221 °C. Moreover, in data set [1], the negative-log IC50 (pIC50) is 4.18. The pIC50 against Aβ(1-42) was 5.60. Also, the pIC50 against Aβ(1-40) [2] is 6.15 and 7.00. The pIC50 on Aβ(1-40) [3] was 5.00 and 5.30.
Molecule `CCCCN(CCCC)c1ccc(/C=C2\SC(=S)N(CC(=O)NS(=O)(=O)C(F)(F)F)C2=O)cc1` [Example 18, (Z) N-{[5-(4-Dibutylamino-benzylidene)-4-oxo-2-thioxo-thiazolidin-3-yl]-acetyl}-C,C,C-trifluoro-methanesulfonamide] yielded a melting point of 228 to 230 °C. This molecule gave a pIC50 in data set [1] of 3.91. For the same molecule, the pIC50 at Aβ(1-42) was 5.73. The negative logarithm of the IC50 (pIC50) at Aβ(1-40) [2] was 6.22. Moreover, the pIC50 at Aβ(1-40) [3] is 5.30.
